From patent US9522154B2, “Method for scheduling ovulation” (LABORATOIRE HRA-PHARMA, priority 2013, dated 2016)

Columns and labels:
[1] = tested on: women; conditions: single dose of 30 mg within 72 hours or 120 hours after the intercourse; cited from earlier work
[2] = tested on: women; test: Open-label trial of repeated ulipristal acetate 30 mg oral tablet, once weekly (Q7D) or every 5 days (Q5D) for 8 weeks: ovulation; type: in vivo, human
Protocol: In an open-label designed trial, 12 women received once weekly (Q7D) treatment with ulipristal acetate (30 mg oral tablet) for eight consecutive weeks starting on 7 days ±1 day after the onset of menses in the first cycle; and 11 women received ulipristal acetate 30 mg every 5 days (Q5D) for 8 weeks. […] The first ovulation occurred after a mean of 3.4 and 6.5 doses, and a mean of 17 and 26 days after start of treatment, in the Q7D and Q5D treatment arms, respectively.
Whenulipristal acetate was given during the follicular phase before the onset of the LH surge, ovulation occurred between 6 and 9 days of the last treatment intake in the majority of women.

[3] = tested on: leading ovarian follicle; test: Clinical trial of a single oral 30 mg dose on the outcome of the leading ovarian follicle before LH surge; type: in vivo, human; conditions: follicle 14-16 mm
Protocol: The results from the clinical trial described in Example 2 were confirmed by a second clinical trial designed to evaluate the effect of a single oral dosage of 30 mg ulipristal acetate on the outcome of the leading ovarian follicle before LH surge, when the follicle was 14-16 mm in diameter. 31 women satisfying all the exclusion/inclusion criteria were enrolled. After the inclusion visit, the women entered the study and underwent ultrasound monitoring starting from Day 5 of their menstrual cycle until the lead follicle reached a diameter of 14-16 mm. At this time, the women received one single dosage of 30 mg ulipristal acetate orally. The women were then monitored daily by ultrasound and hormonal assays until the end of the 21 days treatment period or until ovulation occurred or until the mucus score reached 4 or less at 2 consecutive visits, whichever came first. After which point they were seen twice a week until the end of the study.

CC(=O)O[C@]1(C(C)=O)CC[C@H]2[C@@H]3CCC4=CC(=O)CCC4=C3[C@@H](c3ccc(N(C)C)cc3)C[C@@]21C [ulipristal acetate, 17α-acetoxy-11β-[4-N, N-dimethylamino-phenyl)-19-norpregna-4,9-diene-3,20-dione]
avoidance of unwanted pregnancy (emergency contraception) [1]: safe and effective
mean time to first ovulation after start of treatment ([2]; Q5D arm, 30 mg every 5 days for 8 weeks): 26 days
mean number of doses until first ovulation ([2]; Q5D arm, 30 mg every 5 days for 8 weeks, 11 women): 6.5 doses
inhibition of ovulation throughout the duration of treatment ([2]; Q7D and Q5D regimens, majority of subjects): Neither regimen inhibited ovulation throughout the duration of treatment in a majority of subjects
mean time to first ovulation after start of treatment ([2]; Q7D arm, 30 mg oral tablet once weekly for 8 weeks): 17 days
mean number of doses until first ovulation ([2]; Q7D arm, 30 mg oral tablet once weekly for 8 weeks, 12 women): 3.4 doses
parameters of the luteal phase (duration, progesterone levels) ([2]; after exposure to 30 mg): remain within the normal range
fertilizability of the oocyte ([2]; despite lengthened follicular phase and delay of LH surge, normal pregnancies after 30 mg exposure in emergency contraception trials): the oocyte remains fertilizable
mean duration for the ovulation to occur [3]: 7 days
median duration for the ovulation to occur [3]: 6 days
Outcome of the leading follicle: Atresia, number of women ([3]; 31 women): 0
Outcome of the leading follicle: LUF, number of women ([3]; 31 women): 2
Outcome of the leading follicle: Luteal phase insufficiency, number of women ([3]; 31 women): 1
Outcome of the leading follicle: Ovulation, number of women ([3]; 31 women): 27
Outcome of the leading follicle: Persistent Follicle, number of women ([3]; 31 women): 1
